pIC50, pKd: −log10 of the molar value. Like-named read-outs stand apart in the source and are kept apart here.
What was measured:
[1] = biological target: T1, JAK2 JH2 WT (V536-D812) [W659A, W777A, F794H solubilizing mutations] (Homo sapiens, UniProt O60674, F794H/W659A/W777A); experiment: Surface Plasmon Resonance (SPR) binding assay, JAK2 JH2 domain
T1 construct: **JAK2 JH2 WT (V536-D812) [W659A, W777A, F794H solubilizing mutations]; C-thrombin-avi-His6; thrombin cleavage site (C); His6 (C); purchased Biortus
T1 sequence (O60674 536-812 W659A/W777A/F794H): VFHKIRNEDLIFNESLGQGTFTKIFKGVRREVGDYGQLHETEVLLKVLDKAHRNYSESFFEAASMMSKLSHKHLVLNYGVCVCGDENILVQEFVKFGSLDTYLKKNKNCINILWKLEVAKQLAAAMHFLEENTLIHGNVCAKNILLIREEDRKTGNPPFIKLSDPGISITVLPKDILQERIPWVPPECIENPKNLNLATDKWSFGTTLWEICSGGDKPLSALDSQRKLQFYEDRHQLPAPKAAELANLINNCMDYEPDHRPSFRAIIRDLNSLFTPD
Procedure: Selected compounds of the present disclosure were tested in a Surface Plasmon Resonance (SPR) Assay to measure their binding kinetics and affinity for proteins of interest.
Prepare buffer: 50 mM HEPES pH 7.5, 150 mM NaCl, 0.05% (v/v) Tween, and 10% (v/v) glycerol were combined and pH was adjusted to 7.5, then filtered. 5 mM DTT, was added, and buffer without DMSO was reserved for compound resuspension. 2% (v/v) DMSO was added for assay buffer, and separately 1% DMSO was used to make buffer for resuspending compounds.
Prepare compounds: Using a Bravo liquid handler, 99 μL of 1% (v/v) DMSO assay buffer was added to 1 μL compounds in DMSO.
Run 8K Method: Biotin CAPture (CAP) chip surface was regenerated prior to run by: Inserting CAP chip into Biacore 8K, prime machine with assay buffer with 2% (v/v) DMSO; Setting instrument temperature to 20° C.; Conditioning surface with NaOH/GdnHCl reagents from CAP chip kit (60 seconds, 10 μL/min); and Capturing oligo-Streptavidin (SA) reagent from CAP kit (600 seconds, 1 μL/min), expected capture ˜2500 RU. JAK2 JH1 or JH2 protein was immobilized by preparing a sample of 0.5 uM JH1 or 0.4 uM JH2 protein diluted in assay buffer without DMSO and supplemented with 10 uM of a selected compound of the invention as a stabilizer (370 seconds, 5 uL/min), expected capture ˜1000 RU. Remaining biotin sites on SA were blocked with 1 uM biotin (30 seconds, 20 uL/min), then equilibrated for 1800 seconds at 100 uL/min. Compounds being assayed were run in single cycle kinetics: 4 doses with a top concentration of 5 uM (JH1) or 500 nM (JH2), dilution factor of 3, at 20° C., for a contact time of 60 seconds, and a dissociation time of 300 seconds (JH1) or 1200 seconds (JH2), at a flow rate of 30 uL/min. The surface was completely regenerated after each compound is run, and JH1 or JH2 protein was immobilized fresh prior to each new compound. Data were fitted kinetically with 1:1 binding model using Biacore Insight Evaluation Software.

[2] = test system: TF1 JAK2 V617F STAT3 reporter; experiment: Cellular TF1 STAT3 assay (luciferase reporter), JAK2 V617F; assay type: cell-based; conditions: read-out: Cell PD-TF1 JAK2 V617F STAT3 (IC50)
Procedure: (§1) Selected compounds of the present disclosure were tested in a Cellular TF1 STAT3 or STAT5 assay, to measure the degree of JAK2-mediated STAT3 or STAT5 phosphorylation, respectively. TF1 cells (immortalized erythroleukemia line) expressing either wildtype or V617F mutant JAK2 with a luciferase reporter were used.
(§2) Cell culture: Cells were put into antibiotic selection (1 ug/ml puro+500 ug/ml Geneticin) when first thawed then maintained in growth media without antibiotics. Cells were maintained in exponential growth phase, between 0.02-1 E6 cells/ml.
(§3) Compound preparation: Compounds were screened as 10-point dose response curves 1:3 dilutions. DMSO is used as the vehicle control. All wells were normalized to the same final DMSO concentration. Compounds were pre-spotted onto 384 well plates using an Echo acoustic dispenser, 50 nL of 1000× (10 mM top concentration) DMSO stock/well. Each compound is run in triplicate plates.
(§4) Cell plating: Cells were counted using Vi-Cell XR, then cells were spun down and resuspended in growth media to 200,000 cells/ml. Cells were added to plates containing compound. 10,000 cells/well in 50 ul volume using a Biomek liquid handler. Plates were briefly mixed on a shaker for 1 minute at 2500 rpm then placed in a 37° C., 5% CO2 incubator overnight for 18-20 hrs.
(§5) Measuring luciferase activity: ONE-glo reagent was brought to room temperature, and 25 μL of ONE-glo assay reagent was added to each well using Biomek liquid handler. The plates were incubated for 10 minutes at room temperature, then luminescence was measured on an Envision plate reader.

[3] = test system: TF1 JAK2 V617F STAT5 reporter; experiment: Cellular TF1 STAT5 assay (luciferase reporter), JAK2 V617F; assay type: cell-based; conditions: read-out: Cell PD TF1 V617F STAT5 (IC50)
Procedure: as §1, §2, §3, §4, §5

[4] = Homo sapiens, TF-1, TF1 cells, JAK2 V617F

| SMILES | pIC50 [2, 4] | pIC50 [3, 4] | also measured |
| --- | --- | --- | --- |
| [2H]C([2H])([2H])N(Cc1cc(C#N)ccn1)C(=O)c1ncc(-c2c(C)ccc(Nc3cc(NC(=O)C4CC4)nnc3C(=O)NC)c2OC)cn1 [Compound 87] |  |  | pKd ([1]; SPR, JAK2 JH2 domain): 8.00 to 11.00 |
| CNC(=O)c1nnc(NC(=O)C2CC2)cc1Nc1cccc(-c2cnn(C3CN(Cc4cccc(C(C)=O)n4)[C@H]3C)c2)c1OC (some centres unmarked) [Compound 377] | 5.30 to 6.30 | 5.30 to 6.30 | pKd [1]: 8.00 to 11.00 |
| CNC(=O)c1nnc(NC(=O)C2CC2)cc1Nc1cccc(-c2cnn(C3CN(Cc4cscn4)C3)c2)c1OC [Compound 124] |  |  | pKd ([1]; SPR, JAK2 JH2 domain): 8.00 to 11.00; pIC50 ([2]; TF1 JAK2 V617F): 6.30 to 7.30; pIC50 ([3]; TF1 JAK2 V617F): 6.30 to 7.30 |
| CNC(=O)c1nnc(NC(=O)C2CC2)cc1Nc1cccc(-c2ccc(C(=O)N(C)Cc3cn(C)nc3OC)nc2)c1OC [Compound 257] | 6.30 to 7.30 | 6.30 to 7.30 | pKd [1]: 8.00 to 11.00 |
| CNC(=O)c1nnc(NC(=O)C2CC2)cc1Nc1cccc(-c2cnn(C3CN(Cc4cccc(C(C)(C)COC)n4)C3)c2)c1OC [Compound 351] | 5.30 to 6.30 | 5.30 to 6.30 | pKd [1]: 8.00 to 11.00 |
| CNC(=O)c1nnc(NC(=O)C2CC2)cc1Nc1cccc(-c2ccc(C(=O)N(C)Cc3cn(C)nc3C(F)(F)F)nc2)c1OC [Compound 51] |  |  | pKd ([1]; SPR, JAK2 JH2 domain): 8.00 to 11.00; pIC50 ([2]; TF1 JAK2 V617F): 6.30 to 7.30; pIC50 ([3]; TF1 JAK2 V617F): 6.30 to 7.30 |
| CNCc1cnc(CN(C)C(=O)c2ccc(-c3cccc(Nc4cc(NC(=O)C5CC5)nnc4C(=O)NC)c3OC)cn2)s1 [Compound 282] | 5.30 to 6.30 | 5.30 to 6.30 | pKd [1]: 8.00 to 11.00 |
| CNC(=O)c1nnc(NC(=O)C2CC2)cc1Nc1cccc(-c2ccc(NC(=O)Cc3cccn(C)c3=O)cc2)c1OC [Compound 2] |  |  | pKd ([1]; SPR, JAK2 JH2 domain): 8.00 to 11.00; pIC50 ([2]; TF1 JAK2 V617F): 4.00 to 5.30; pIC50 ([3]; TF1 JAK2 V617F): 4.00 to 5.30 |
| CNC(=O)c1nnc(NC(=O)C2CC2)cc1Nc1cccc(-c2cnn(C3CN(Cc4cccn(C(F)F)c4=O)C3)c2)c1OC [Compound 251] | 6.30 to 7.30 | 6.30 to 7.30 | pKd [1]: 8.00 to 11.00 |
| CNC(=O)c1nnc(NC(=O)C2CC2)cc1Nc1cccc(-c2cnn(C3CN(Cc4ncsc4C)C3)c2)c1OC [Compound 125] |  |  | pKd ([1]; SPR, JAK2 JH2 domain): 8.00 to 11.00; pIC50 ([2]; TF1 JAK2 V617F): 5.30 to 6.30; pIC50 ([3]; TF1 JAK2 V617F): 5.30 to 6.30 |
| CNC(=O)c1nnc(NC(=O)C2CC2)cc1Nc1cccc(-c2cnc(C(=O)N(C)Cc3nn(C)cc3Br)nc2)c1OC [Compound 56] |  |  | pKd ([1]; SPR, JAK2 JH2 domain): 8.00 to 11.00; pIC50 ([2]; TF1 JAK2 V617F): 6.30 to 7.30; pIC50 ([3]; TF1 JAK2 V617F): 6.30 to 7.30 |
| COc1c(Nc2cc(NC(=O)C3CC3)nn3cc(C)nc23)cccc1-c1cnn(C2CN(Cc3ccccn3)C2)c1 [Compound 204] | 5.30 to 6.30 | 5.30 to 6.30 | pKd [1]: 8.00 to 11.00 |
| CNC(=O)c1nnc(NC(=O)C2CC2)cc1Nc1cccc(-c2ccc(C(=O)N(C)Cc3nc(C)no3)nc2)c1OC [Compound 102] |  |  | pKd ([1]; SPR, JAK2 JH2 domain): 8.00 to 11.00; pIC50 ([2]; TF1 JAK2 V617F): 5.30 to 6.30; pIC50 ([3]; TF1 JAK2 V617F): 5.30 to 6.30 |
| C=C(C)c1cccc(CN2CC(n3cc(-c4cccc(Nc5cc(NC(=O)C6CC6)nnc5C(=O)NC)c4OC)cn3)C2)n1 [Compound 367] | 6.30 to 7.30 | 6.30 to 7.30 | pKd [1]: 8.00 to 11.00 |
| CNC(=O)c1nnc(NC(=O)C2CC2)cc1Nc1cccc(-c2ccc(C3CN(Cc4ccc(OC5CC5)cn4)C3)nc2)c1OC [Compound 390] |  |  | pKd [1]: 6.30 to 7.30 |
| CNC(=O)c1nnc(NC(=O)C2CC2)cc1Nc1cccc(-c2cnn(C3CN(Cc4nn(C)cc4C)C3)c2)c1OC [Compound 215] | 5.30 to 6.30 | 5.30 to 6.30 |  |
| CNC(=O)c1nnc(NC(=O)C2CC2)cc1Nc1nccc(-c2ccc(C(=O)N(C)Cc3ncc(COC)s3)nc2)c1OC [Compound 375] |  |  | pKd [1]: 8.00 to 11.00 |
| CNC(=O)c1nnc(NC(=O)C2CC2)cc1Nc1cccc(-c2ccc(C(=O)N(C)Cc3cc(C#N)ccn3)c(C(F)F)c2)c1OC [Compound 233] | 5.30 to 6.30 | 5.30 to 6.30 |  |
| CNC(=O)c1nnc(NC(=O)C2CC2)cc1Nc1cccc(-c2ccc(C(=O)N(C)C(C)c3cnn(C)c3)nc2)c1OC (centres unmarked) [Compound 46] |  |  | pKd ([1]; SPR, JAK2 JH2 domain): 8.00 to 11.00 |

Further lines, with some results ahead:

| pIC50 [2, 4] | pIC50 [3, 4] | SMILES | also measured |
| --- | --- | --- | --- |
| 4.00 to 5.30 | 4.00 to 5.30 | COc1c(Nc2cc(NC(=O)C3CC3)nn3cc(C#N)nc23)ccc(C)c1-c1cnn(C2CN(Cc3ccccn3)C2)c1 [Compound 395] |  |
|  | 6.30 to 7.30 | CNC(=O)c1nnc(NC(=O)C2CC2)cc1Nc1cc(F)c(C)c(-c2ccc(C(=O)N(C)Cc3cc(S(C)(=O)=O)ccn3)nc2)c1OC [Compound 400] |  |
|  | 6.30 to 7.30 | CNC(=O)c1nnc(NC(=O)C2CC2)cc1Nc1ccc(Cl)c(-c2ccc(C(=O)N(C)Cc3cc(S(C)(=O)=O)ccn3)nc2)c1OC [Compound 401] |  |
|  | 5.30 to 6.30 | CNC(=O)c1nnc(NC(=O)C2CC2)cc1Nc1cccc(-c2ccc(C(=O)N(C)Cc3cc([S@+](C)[O-])ccn3)nc2)c1OC (single isomer, unassigned) [Compound 407] |  |
|  | 6.30 to 7.30 | CNC(=O)c1nnc(NC(=O)C2CC2)cc1Nc1cccc(-c2ccc(C(=O)N(C)Cc3cc([S@@+](C)[O-])ccn3)nc2)c1OC (single isomer, unassigned) [Compound 405] |  |
| 4.00 to 5.30 | 5.30 to 6.30 | CNC(=O)c1nnc(NC(=O)C2CC2)cc1Nc1cccc(-c2ccc(C3CN(Cc4ccc(C(F)(F)F)cn4)C3)nc2)c1OC [Compound 387] |  |
|  | 4.00 to 5.30 | CNC(=O)c1nnc(NC(=O)C2CC2)cc1Nc1cccc(-c2cc(N3CC(Cc4ccccn4)C3)n(C)n2)c1OC [Compound 404] |  |
|  | 6.30 to 7.30 | CNC(=O)c1nnc(NC(=O)C2CC2)cc1Nc1cccc(-c2cnn(C3CN(Cc4cccc([S@@+](C)[O-])n4)C3)c2)c1OC (single isomer, unassigned) [Compound 403] |  |
| 4.00 to 5.30 | 4.00 to 5.30 | COc1c(Nc2cc(NC(=O)C3CC3)nn3cc(C(N)=O)nc23)ccc(C)c1-c1cnn(C2CN(Cc3ccccn3)C2)c1 [Compound 392] |  |
|  | 6.30 to 7.30 | CNC(=O)c1nnc(NC(=O)C2CC2)cc1Nc1cccc(-c2cnn(C3CN(Cc4cccc([S@+](C)[O-])n4)C3)c2)c1OC (single isomer, unassigned) [Compound 402] |  |
| 5.30 to 6.30 | 4.00 to 5.30 | CNC(=O)c1nnc(NC(=O)C2CC2)cc1Nc1cccc(-c2cc(N3CC(Oc4ccccn4)C3)n(C)n2)c1OC [Compound 393] |  |
|  | 4.00 to 5.30 | COc1c(Nc2cc(NC(=O)C3CC3)nnc2-c2ncc[nH]2)cccc1-c1cnn(C2CN(Cc3ccccn3)C2)c1 [Compound 406] |  |
| 4.00 to 5.30 | 5.30 to 6.30 | CNC(=O)c1nnc(NC(=O)C2CC2)cc1Nc1cccc(-c2ccc(C3CN(Cc4ncc(OC)cc4Cl)C3)nc2)c1OC [Compound 386] |  |
